# Source: PMC10004634 (PLOS ONE, 2023)
# Like-named read-outs stand apart in the source and are kept apart here.
# Key:
# Assay in all cases: biochemical
# Parameters in all cases: KINOMEscan scanMAX competition binding, DNA-tagged kinases, qPCR read-out, percent control at 300 nM
# AXL = biological target: T1, AXL (Homo sapiens, UniProt P30530)
# T1 sequence (P30530 1-894): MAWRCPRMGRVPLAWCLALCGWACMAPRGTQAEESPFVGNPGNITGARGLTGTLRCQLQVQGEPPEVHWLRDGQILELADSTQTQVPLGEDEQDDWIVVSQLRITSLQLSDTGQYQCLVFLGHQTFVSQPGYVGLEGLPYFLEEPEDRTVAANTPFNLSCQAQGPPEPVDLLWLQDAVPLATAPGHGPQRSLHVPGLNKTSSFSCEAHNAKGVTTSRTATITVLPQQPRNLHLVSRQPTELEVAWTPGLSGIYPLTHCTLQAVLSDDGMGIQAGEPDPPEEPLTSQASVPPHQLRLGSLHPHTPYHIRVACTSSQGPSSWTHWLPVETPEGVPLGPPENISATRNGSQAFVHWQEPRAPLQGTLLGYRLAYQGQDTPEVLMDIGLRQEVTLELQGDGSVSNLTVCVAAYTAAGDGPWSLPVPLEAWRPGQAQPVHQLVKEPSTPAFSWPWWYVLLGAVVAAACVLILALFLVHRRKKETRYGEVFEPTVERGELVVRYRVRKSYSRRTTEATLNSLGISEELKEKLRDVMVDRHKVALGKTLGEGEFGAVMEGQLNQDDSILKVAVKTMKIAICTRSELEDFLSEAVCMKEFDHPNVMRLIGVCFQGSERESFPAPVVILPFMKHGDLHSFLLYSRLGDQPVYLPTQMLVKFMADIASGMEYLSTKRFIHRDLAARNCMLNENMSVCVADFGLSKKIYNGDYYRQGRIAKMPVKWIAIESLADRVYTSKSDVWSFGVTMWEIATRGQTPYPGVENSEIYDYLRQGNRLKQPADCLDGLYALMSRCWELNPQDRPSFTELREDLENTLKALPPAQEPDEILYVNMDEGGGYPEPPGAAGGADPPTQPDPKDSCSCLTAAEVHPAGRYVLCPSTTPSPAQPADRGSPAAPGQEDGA
# GRK4 = GRK4 (Homo sapiens, UniProt P32298)
# Chain of GRK4 (P32298 whole entry): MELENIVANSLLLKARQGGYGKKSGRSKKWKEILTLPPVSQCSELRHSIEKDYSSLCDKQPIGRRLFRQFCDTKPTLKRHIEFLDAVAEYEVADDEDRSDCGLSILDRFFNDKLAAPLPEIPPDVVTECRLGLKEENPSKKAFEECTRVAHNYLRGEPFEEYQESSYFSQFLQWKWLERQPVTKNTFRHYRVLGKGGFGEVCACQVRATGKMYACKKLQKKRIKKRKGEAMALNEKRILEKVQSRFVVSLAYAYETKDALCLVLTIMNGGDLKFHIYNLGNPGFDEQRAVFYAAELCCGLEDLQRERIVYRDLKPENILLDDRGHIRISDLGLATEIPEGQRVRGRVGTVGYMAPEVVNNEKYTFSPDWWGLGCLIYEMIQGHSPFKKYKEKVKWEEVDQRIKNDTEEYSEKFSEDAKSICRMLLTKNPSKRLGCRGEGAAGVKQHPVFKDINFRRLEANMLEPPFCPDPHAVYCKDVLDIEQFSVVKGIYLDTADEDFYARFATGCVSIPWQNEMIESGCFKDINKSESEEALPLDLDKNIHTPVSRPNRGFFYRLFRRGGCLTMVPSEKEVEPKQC
# [1] = biological target: T2, RSK4(Kin.Dom.2-C-terminal) (Homo sapiens, UniProt Q9UK32)
# T2 construct: gene RPS6KA6; Kin.Dom.2-C-terminal
# T2 sequence (Q9UK32 whole entry): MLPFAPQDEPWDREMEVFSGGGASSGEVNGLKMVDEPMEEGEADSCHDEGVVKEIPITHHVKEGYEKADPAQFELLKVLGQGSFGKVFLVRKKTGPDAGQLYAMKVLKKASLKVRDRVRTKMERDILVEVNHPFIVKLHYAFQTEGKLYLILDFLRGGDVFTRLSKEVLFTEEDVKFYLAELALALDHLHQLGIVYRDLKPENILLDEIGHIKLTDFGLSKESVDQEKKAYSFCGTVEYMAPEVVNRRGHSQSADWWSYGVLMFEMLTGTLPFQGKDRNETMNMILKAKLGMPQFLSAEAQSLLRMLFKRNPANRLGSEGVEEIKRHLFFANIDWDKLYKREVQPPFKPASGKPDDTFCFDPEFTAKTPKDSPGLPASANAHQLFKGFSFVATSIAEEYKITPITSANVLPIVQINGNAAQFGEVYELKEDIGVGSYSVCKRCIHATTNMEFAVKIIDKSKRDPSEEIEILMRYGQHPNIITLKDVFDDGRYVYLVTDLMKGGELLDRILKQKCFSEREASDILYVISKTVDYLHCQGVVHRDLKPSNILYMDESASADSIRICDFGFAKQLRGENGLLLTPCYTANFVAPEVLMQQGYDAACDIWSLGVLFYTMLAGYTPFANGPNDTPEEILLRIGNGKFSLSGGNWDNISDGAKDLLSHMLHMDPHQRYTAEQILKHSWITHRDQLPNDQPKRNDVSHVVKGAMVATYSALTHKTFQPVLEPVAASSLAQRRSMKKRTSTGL
# SRPK3 = SRPK3 (Homo sapiens, UniProt Q9UPE1)
# Chain of SRPK3 (Q9UPE1 whole entry): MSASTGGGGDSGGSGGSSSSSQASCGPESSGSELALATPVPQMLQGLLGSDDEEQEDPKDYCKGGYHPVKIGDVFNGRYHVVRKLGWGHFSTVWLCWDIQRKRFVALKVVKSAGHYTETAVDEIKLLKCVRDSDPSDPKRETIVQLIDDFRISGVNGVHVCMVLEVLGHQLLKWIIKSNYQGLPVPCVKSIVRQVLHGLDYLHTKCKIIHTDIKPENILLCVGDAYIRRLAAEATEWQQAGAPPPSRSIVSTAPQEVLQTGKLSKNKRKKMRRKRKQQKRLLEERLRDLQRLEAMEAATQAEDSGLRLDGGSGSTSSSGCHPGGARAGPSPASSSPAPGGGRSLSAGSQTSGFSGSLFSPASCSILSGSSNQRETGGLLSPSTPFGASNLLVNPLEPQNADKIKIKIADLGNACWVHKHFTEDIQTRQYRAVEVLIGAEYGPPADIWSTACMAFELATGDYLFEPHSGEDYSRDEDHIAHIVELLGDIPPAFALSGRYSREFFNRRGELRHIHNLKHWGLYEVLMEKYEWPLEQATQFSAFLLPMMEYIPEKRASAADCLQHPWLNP
# ICK = biological target: T3, ICK (Homo sapiens, UniProt Q9UPZ9)
# T3 construct: gene CILK1
# T3 sequence (Q9UPZ9 1-632): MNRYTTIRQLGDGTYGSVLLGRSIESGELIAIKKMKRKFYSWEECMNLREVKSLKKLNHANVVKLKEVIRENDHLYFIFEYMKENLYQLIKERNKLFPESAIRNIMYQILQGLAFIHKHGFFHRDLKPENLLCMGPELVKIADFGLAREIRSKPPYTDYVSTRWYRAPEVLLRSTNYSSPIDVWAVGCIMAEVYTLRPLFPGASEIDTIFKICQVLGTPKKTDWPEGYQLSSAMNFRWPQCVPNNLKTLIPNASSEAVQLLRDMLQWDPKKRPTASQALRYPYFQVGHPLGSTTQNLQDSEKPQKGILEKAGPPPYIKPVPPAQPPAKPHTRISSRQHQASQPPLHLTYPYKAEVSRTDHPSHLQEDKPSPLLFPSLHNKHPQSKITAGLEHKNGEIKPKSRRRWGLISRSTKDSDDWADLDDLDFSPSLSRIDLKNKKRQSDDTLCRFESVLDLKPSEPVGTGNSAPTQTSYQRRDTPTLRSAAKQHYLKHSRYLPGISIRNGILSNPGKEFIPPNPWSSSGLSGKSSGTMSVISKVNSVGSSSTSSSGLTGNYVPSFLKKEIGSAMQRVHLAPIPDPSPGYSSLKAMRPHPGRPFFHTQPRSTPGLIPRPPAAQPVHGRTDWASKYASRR
# PIM2 = PIM2 (Homo sapiens, UniProt Q9P1W9)
# Chain of PIM2 (Q9P1W9 whole entry): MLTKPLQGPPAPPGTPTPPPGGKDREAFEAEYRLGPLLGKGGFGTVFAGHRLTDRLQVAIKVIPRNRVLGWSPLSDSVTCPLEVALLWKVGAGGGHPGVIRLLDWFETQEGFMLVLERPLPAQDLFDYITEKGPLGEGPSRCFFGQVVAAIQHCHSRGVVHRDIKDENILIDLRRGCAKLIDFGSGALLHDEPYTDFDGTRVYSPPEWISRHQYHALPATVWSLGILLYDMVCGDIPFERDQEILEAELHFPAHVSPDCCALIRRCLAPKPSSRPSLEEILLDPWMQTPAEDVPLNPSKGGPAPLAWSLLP
# MAP4K2 = biological target: T4, MAP4K2 (Homo sapiens, UniProt Q12851)
# T4 sequence (Q12851 1-820): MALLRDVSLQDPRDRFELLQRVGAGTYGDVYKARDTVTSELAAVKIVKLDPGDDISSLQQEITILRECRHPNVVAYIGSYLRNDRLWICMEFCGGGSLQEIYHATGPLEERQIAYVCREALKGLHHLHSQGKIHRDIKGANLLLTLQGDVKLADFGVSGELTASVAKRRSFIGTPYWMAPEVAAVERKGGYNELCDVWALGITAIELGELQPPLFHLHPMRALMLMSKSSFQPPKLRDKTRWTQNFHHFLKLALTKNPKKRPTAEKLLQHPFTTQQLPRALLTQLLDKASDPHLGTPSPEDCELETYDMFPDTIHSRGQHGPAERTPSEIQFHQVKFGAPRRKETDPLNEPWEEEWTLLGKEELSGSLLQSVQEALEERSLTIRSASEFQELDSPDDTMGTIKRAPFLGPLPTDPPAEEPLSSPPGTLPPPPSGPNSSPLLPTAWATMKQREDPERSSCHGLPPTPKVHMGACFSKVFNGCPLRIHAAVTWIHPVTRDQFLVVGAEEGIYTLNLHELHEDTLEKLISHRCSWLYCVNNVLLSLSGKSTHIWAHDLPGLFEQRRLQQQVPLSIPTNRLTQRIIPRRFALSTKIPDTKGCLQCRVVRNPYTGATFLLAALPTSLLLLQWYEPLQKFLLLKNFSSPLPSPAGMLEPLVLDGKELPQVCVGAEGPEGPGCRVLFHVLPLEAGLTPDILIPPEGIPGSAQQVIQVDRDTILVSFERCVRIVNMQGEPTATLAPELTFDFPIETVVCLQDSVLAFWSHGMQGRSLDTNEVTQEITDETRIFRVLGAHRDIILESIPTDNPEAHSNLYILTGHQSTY
# [2] = read-out: Percent control / Acalabrutinib
# [3] = read-out: Percent control / Ibrutinib
# [4] = read-out: Percent control / Tirabrutinib
# [5] = read-out: Percent control / Zanubrutinib
compound,measurement,setting,value
CC#CC(=O)N1CCC[C@H]1c1nc(-c2ccc(C(=O)Nc3ccccn3)cc2)c2c(N)nccn12 [Acalabrutinib],remaining binding at 0.3 µM,AXL; [2],88%
same,remaining binding at 0.3 µM,GRK4; [2],89%
same,remaining binding at 0.3 µM,[1]; [2],95%
same,remaining binding at 0.3 µM,SRPK3; [2],86%
same,remaining binding at 0.3 µM,ICK; [2],82%
C=CC(=O)N1CCC[C@@H](n2nc(-c3ccc(Oc4ccccc4)cc3)c3c(N)ncnc32)C1 [Ibrutinib],remaining binding at 0.3 µM,AXL; [3],85%
same,remaining binding at 0.3 µM,PIM2; [3],96%
same,remaining binding at 0.3 µM,MAP4K2; [3],68%
same,remaining binding at 0.3 µM,SRPK3; [3],96%
same,remaining binding at 0.3 µM,ICK; [3],61%
CC#CC(=O)N1CC[C@@H](n2c(=O)n(-c3ccc(Oc4ccccc4)cc3)c3c(N)ncnc32)C1 [Tirabrutinib],remaining binding at 0.3 µM,GRK4; [4],74%
same,remaining binding at 0.3 µM,PIM2; [4],99%
same,remaining binding at 0.3 µM,MAP4K2; [4],80%
same,remaining binding at 0.3 µM,[1]; [4],93%
same,remaining binding at 0.3 µM,ICK; [4],60%
C=CC(=O)N1CCC([C@@H]2CCNc3c(C(N)=O)c(-c4ccc(Oc5ccccc5)cc4)nn32)CC1 [Zanubrutinib],remaining binding at 0.3 µM,AXL; [5],91%
same,remaining binding at 0.3 µM,GRK4; [5],85%
same,remaining binding at 0.3 µM,PIM2; [5],96%
same,remaining binding at 0.3 µM,MAP4K2; [5],43%
same,remaining binding at 0.3 µM,[1]; [5],82%
same,remaining binding at 0.3 µM,SRPK3; [5],100%
